Values quoted from earlier work in patent US12016830B2, “Pharmaceutical compositions comprising isotretinoin and processes for preparation and uses thereof” (Acrotech Biopharma Inc., priority 2022, dated 2024).

Settings: background statement

SMILES: CC1=C(/C=C/C(C)=C/C=C/C(C)=C\C(=O)O)C(C)(C)CCC1 [Isotretinoin, 13-cis retinoic acid]
- oral bioavailability: low oral bioavailability
